# Reference: patent US11766412B2, “Methods of treating or alleviating adenylosuccinatelyase (ADSL) deficiency using spermidine or a pharmaceutically acceptable salt of spermidine” (GENEHEAL BIOTECHNOLOGY CO., LTD., priority 2016, dated 2023)
# Non-standard residues stand in square brackets, D forms with d. Residues, ends and D or L forms follow the SMILES beside them. Arg(NO2) = N=C(NCCC[C@H](N)C(=O)O)N[N+](=O)[O-]; Dab = NCC[C@H](N)C(=O)O
# System: SAICAR synthetase
# Experiment: Inhibition of SAICAR accumulation, biochemical enzyme activity experiments and cell biology experiments
# From the text: On the basis of the above results, the crystal structure conformations in SAICAR synthetases of Saccharomyces cerevisiae (PDB: 2CNQ) and Escherichia coli (PDB: 2GQS) are used as receptor structures for calculating and screening, since there is no conformation which can bind CAIR in human PAICS crystal structure, and no catalytic conformation formed in the catalytic region, and the results obtained by calculation are not reliable. 4661 of small molecule drugs in the DrugBank (www.drugbank.ca) are calculated and screened by using the ligand fit module of Discovery studio. The conformations are ordered according to dock scores, and then the first 500 conformations are selected. After eliminating the repetitions, key screening results are obtained. In addition, the inhibition ratios of the compounds against SAICAR accumulation are confirmed by biochemical enzyme activity experiments and cell biology experiments, as shown in Table 1.
row,Compound,Inhibition ratios against SAICAR accumulation
1,"NC(CSC1C=C(C(N)C(=O)O)ON1)C(=O)O (stereo not drawn) [DB01974, 2-Amino-3-[5-(Amino-Carboxy-Methyl)-2,3-Dihydro-Isoxazol-3-Ylsulfanyl]-Propionic Acid]",66.711%
2,"CSC[C@H](NC(=O)CC[C@H](N)C(=O)O)C(=O)NCC(=O)O [DB04701, S-METHYL-GLUTATHIONE]",40.1%
3,"CC(N)C(CCCCCC(=O)O)NC(=O)OP(=O)(O)O (stereo not drawn) [DB02927, Mixed Carbamic Phosphoric Acid Anhydride of 7,8-Diaminononanic acid]",22.8%
4,"C[C@@H](NC(=O)CCCC[C@H](NC(=O)CN)C(=O)O)C(=O)O [DB03927, Glycyl-L-Alpha-Amino-Epsilon-Pimelyl-D-Alanine]",29.859%
5,"NC(CC1=CC(=NC2CC2c2ccccc2)C(O)=CC1=O)C(=O)O (stereo not drawn) [DB01657, 2-Amino-3-[4-Hydroxy-6-Oxo-3-(2-Phenyl-Cyclopropylimino)-Cyclohexa-1,4-Dienyl]-Propionic acid]",22.9%
6,"Cc1ncc(COP(=O)(O)O)c(CN[C@@H](CCC(=O)O)C(=O)O)c1O [DB01813, Pyridoxyl-Glutamic Acid-5′-Monophosphate]",40.9%
7,"N[C@@H](CCC(=O)N[C@@H](CS(=O)(=O)O)C(=O)NCC(=O)O)C(=O)O [DB03003, Glutathione Sulfonic acid]",38%
8,"N[C@@H](CSC1CC(CC(=O)O)ON1N)C(=O)O (stereo partly drawn) [DB04323, 2-Amino-3-(Cystein-S-Yl)-Isoxazolidin-5-Yl-Acetic acid]",56.68%
9,"NCCCCCCNCCCCCCN [DB04684, BIS(HEXAMETHYLENE)TRIAMINE]",9.3%
10,"N[C@@H](CCC(=O)N[C@@H](CSCc1ccccc1)C(=O)NCC(=O)O)C(=O)O [DB03602, S-Benzyl-Glutathione]",36.5%
11,"N[C@@H](CCC(=O)N[C@@H](CSCc1ccc([N+](=O)[O-])cc1)C(=O)NCC(=O)O)C(=O)O [D1303686, S-(P-Nitrobenzyl)Glutathione]",63.83%
12,"Nc1ncnc2c1ncn2[C@@H]1O[C@H](COP(=O)(O)OC(=O)[C@@H](N)CC(=O)O)[C@@H](O)[C@H]1O [DB01895, Aspartyl-Adenosine-5′-Monophosphate]",22.918%
13,"NC(=O)[C@@H]1C[C@@H](NC(=O)[C@@H](N)CCCN=C(N)N[N+](=O)[O-])CN1 [DB02077, L-N(Omega)-Nitroarginine-(4r)-Amino-L-Proline Amide]",71.8%
14,"NCC[C@H](NC(=O)[C@@H](N)CCCN=C(N)N[N+](=O)[O-])C(N)=O [DB01821, L-N(Omega)-Nitroarginine-2,4-L-Diaminobutyric Amide] (H-[Arg(NO2)]-[Dab]-NH2)",57.11%
15,"N[C@@H](CCC(=O)N[C@@H](CSCO)C(=O)NCC(=O)O)C(=O)O [DB04153, S-Hydroxymethyl Glutathione]",58%
16,"N[C@@H](Cc1cc(N=Nc2ccccn2)c(O)cc1O)C(=O)O [DB01634, 2-Oxy-4-Hydroxy-5-(2-Hydrazinopyridine)Phenylalanine]",23.7%
17,"NCCC[C@H](NC(=O)CP(=O)(O)O)C(=O)O [DB02011, N-(phosphonoacetyl)-L-Ornithine]",41.85%
18,"CN(CC[C@H](N)CC(=O)N[C@H]1C=C[C@H](N2C=C[C@@](N)(O)NC2=O)O[C@@H]1C(=O)O)C(=N)N [DB04649, TETRAHEDRAL INTERMEDIATE OF BLASTICIDIN S]",20.09%
19,"NCCC[C@H](NC(=O)CCC(=O)O)C(=O)O [DB03582, N-2-Succinylornithine]",19.97%
20,"CC(N)C(CCCCCC(=O)O)NC(=O)O (stereo not drawn) [DB03624, 7-(Carboxyamino)-8-Amino-Nonanoic Acid]",51.9%

row,Compound,Inhibition ratios against SAICAR accumulation
1,"N[C@@H](CCC(=O)N[C@@H](CSCc1cccc(I)c1)C(=O)NCC(=O)O)C(=O)O [DB04341, S-(3-Iodobenzyl)Glutathione]",9.9%
2,"Cc1ncc(COP(=O)(O)O)c(CNC(C(C)C)P(=O)(O)O)c1O (stereo not drawn) [DB03433, {[(3-Hydroxy-2-Methyl-5-Phosphonooxymethyl-Pyridin-4-ylmethyl)-Amino]-2-Methyl-Propyl}-Phosphonic Acid]",53.38%
3,"NC[C@H]1O[C@H](O[C@H]2[C@H](O)[C@@H](O)[C@H](N)C[C@@H]2N)[C@H](N)[C@@H](O)[C@@H]1O [D1304808, Neamine]",37.11%
4,"CN(C)c1ncnc2c1ncn2[C@@H]1O[C@H](COP(=O)(O)O)[C@@H](N)[C@H]1O [DB04602, PUROMYCIN AMINONUCLEOSIDE-5′-MONOPHOSPHATE]",12.9%
5,"Cc1cccc(C2=C(c3ccc4ncccc4n3)CNN2)n1 [DB04434, Naphthyridine Inhibitor]",22.98%
6,"C[C@H](NC(=NCC(=O)O)Nc1ccc(C#N)cc1)c1ccccc1 [DB04778, SC45647]",11.29%
7,"N[C@@H](CCC(=O)N[C@@H](CS(=O)O)C(=O)NCC(=O)O)C(=O)O [DB04700, GLUTATHIONE SULFINATE]",9.98%
8,"CC(N)C(CCCCCC(=O)O)CC(=O)O (stereo not drawn) [DB02941, 3-(1-Aminoethyl)Nonanedioic Acid]",69.8%
9,"Cc1ccc(OCC(=CC=O)Nc2cc(C[C@H](N)C(=O)O)c(O)cc2O)cc1 [DB02537, 2 -Hydroxy-5-({1-[(4-Methylphenoxy)Methyl]-3-Oxoprop-1-Enyl}Amino)-L-Tyrosin]",71.1%
10,"Cc1ncc(COP(=O)(O)O)c(CNCC(=O)O)c1O [DB02824, N-Pyridoxyl-Glycine-5-Monophosphate]",77.97%
11,"NC(CCCCN[C@@H](CCC(=O)O)C(=O)O)C(=O)O (stereo partly drawn) [DB04207, N-(5-Amino-5-Carboxypentyl)-Glutamic Acid]",65.69%
12,"NCCCCNCCCN [DB03566, Spermidine]",68.98%
13,"O=c1[nH]cnc2c([C@@H]3N[C@H](COP(=O)(O)O)[C@@H](O)[C@H]3O)c[nH]c12 [DB02075, (1s)-1-(9-Deazahypoxanthin-9-yl)-1,4-Di Deoxy-1,4-Imino-D-Ribitol-5-Phosphate]",28.5%
14,"N[C@@H](CCCCNC(C(=O)O)C(=O)O)C(=O)O [DB01815, Nz-(Dicarboxymethyl)Lysine]",22.68%
15,"N-ethyl-N[3-(propylamino)propyl]propane-1,3-diamine [DB04633]",12.798%
16,"C=C[C@@H](NC(=O)[C@H](CS)NC(=O)CCC[C@H](N)C(=O)O)C(=O)O [DB03427, Delta-(L-Alpha-Aminoadipoyl)-L-Cysteinyl-D-Vinylglycine]",13.3%
17,"OCC(OS(O)(O)O)[C@H](O)CN1C[C@@H](O)[C@H](O)[C@H]1CO (stereo partly drawn) [DB02492, Ghavamiol]",17.4%
18,"NC(=NCCCC(N)C(=O)O)NC(CC(=O)O)C(=O)O (stereo not drawn) [DB02267, Argininosuccinate]",86.81%
19,"Cc1ncc(COP(=O)(O)O)c(CN[C@H](CCC(=O)O)C(=O)O)c1O [DB04762, N-PYRIDOXYL-D-GLUTAMIC ACID-5′-MONOPHOSPHATE]",27.7%
